Source: EP0913089A1, “Synergistic herbicidal composition containing R-imazethapyr and R-imazapyr and method for controlling weeds therewith” (American Cyanamid Company, priority 1997, dated 1999)

How the values were obtained:
Assay in all cases: Greenhouse postemergence weed control, visual rating (Example 1)
Set-up in all cases: scale not given here
Details in all cases: approx. 3 weeks after treatment
CHEAL = format: in vivo, Chenopodium album, L.
Procedure: (§1) In this evaluation, plants are grown in standard greenhouse soil for 10-14 days until they are at the 2-to 4-leaf stage. Said plants are then sprayed with an aqueous solution of the test compounds which contains 0.25% of a non-ionic surfactant and 1% of a 28-0-0 liquid fertilizer. Each treatment is replicated 3 to 4 times. Approximately 3 weeks after treatment visual ratings are made using the rating scale shown below. The data are averaged and shown on Table I. [table] [table]

AMBEL = format: in vivo, Ambrosia artemisiifolia, L.
Procedure: as §1

SETVI = format: in vivo, Setaria viridis, (L) Beauv
Procedure: as §1

ABUTH = format: in vivo, Abutilon theophrasti, Medic.
Procedure: as §1

With CC(C)C1(C)N=C(c2ncccc2C(=O)O)NC1=O (racemic) [Imazapyr] the “WEED CONTROL CHEAL” value (CHEAL; Rate 2.016 g/ha) was 6.3, the “WEED CONTROL CHEAL” value (CHEAL; Rate 4.00 g/ha) was 8.0 and the “WEED CONTROL CHEAL” value (CHEAL; Rate 8.00 g/ha) was 8.8. The “WEED CONTROL CHEAL” value (CHEAL; Rate 16.00 g/ha) was 9.0, the “WEED CONTROL CHEAL” value (CHEAL; Rate 32.00 g/ha) was 9.0 and the “WEED CONTROL CHEAL” value (CHEAL; Rate 48.00 g/ha) was 9.0. The “WEED CONTROL CHEAL” value (CHEAL; Rate 64.00 g/ha) was 9.0, the “WEED CONTROL AMBEL” value (AMBEL; Rate 2.016 g/ha) was 2.5 and the “WEED CONTROL AMBEL” value (AMBEL; Rate 4.00 g/ha) was 4.0. The “WEED CONTROL AMBEL” value (AMBEL; Rate 8.00 g/ha) was 5.0, the “WEED CONTROL AMBEL” value (AMBEL; Rate 16.00 g/ha) was 7.0 and the “WEED CONTROL AMBEL” value (AMBEL; Rate 32.00 g/ha) was 7.8. For the same compound, the “WEED CONTROL AMBEL” value (AMBEL; Rate 48.00 g/ha) was 8.8, the “WEED CONTROL AMBEL” value (AMBEL; Rate 64.00 g/ha) was 8.8 and the “WEED CONTROL SETVI” value (SETVI; Rate 2.016 g/ha) was 5.3. The “WEED CONTROL SETVI” value (SETVI; Rate 4.00 g/ha) was 6.8, the “WEED CONTROL SETVI” value (SETVI; Rate 8.00 g/ha) was 9.0 and the “WEED CONTROL SETVI” value (SETVI; Rate 16.00 g/ha) was 9.0. For the same compound, the “WEED CONTROL SETVI” value (SETVI; Rate 32.00 g/ha) was 9.0, the “WEED CONTROL SETVI” value (SETVI; Rate 48.00 g/ha) was 9.0 and the “WEED CONTROL SETVI” value (SETVI; Rate 64.00 g/ha) was 9.0. For the same compound, the “WEED CONTROL ABUTH” value (ABUTH; Rate 2.016 g/ha) was 4.8, the “WEED CONTROL ABUTH” value (ABUTH; Rate 4.00 g/ha) was 6.3 and the “WEED CONTROL ABUTH” value (ABUTH; Rate 8.00 g/ha) was 7.5. For the same compound, the “WEED CONTROL ABUTH” value (ABUTH; Rate 16.00 g/ha) was 8.5, the “WEED CONTROL ABUTH” value (ABUTH; Rate 32.00 g/ha) was 9.0 and the “WEED CONTROL ABUTH” value (ABUTH; Rate 48.00 g/ha) was 9.0. The “WEED CONTROL ABUTH” value (ABUTH; Rate 64.00 g/ha) was 9.0.
In the case of CCc1cnc(C2=NC(C)(C(C)C)C(=O)N2)c(C(=O)O)c1 (racemic) [Imazethapyr], the “WEED CONTROL CHEAL” value (CHEAL; Rate 4.00 g/ha) is reported as 2.5, the “WEED CONTROL CHEAL” value (CHEAL; Rate 8.00 g/ha) is reported as 2.3 and the “WEED CONTROL CHEAL” value (CHEAL; Rate 16.00 g/ha) is reported as 3.5. The “WEED CONTROL CHEAL” value (CHEAL; Rate 32.00 g/ha) was 7.0, the “WEED CONTROL CHEAL” value (CHEAL; Rate 64.00 g/ha) was 8.0 and the “WEED CONTROL CHEAL” value (CHEAL; Rate 96.00 g/ha) was 9.0. The “WEED CONTROL CHEAL” value (CHEAL; Rate 128.00 g/ha) was 9.0, the “WEED CONTROL AMBEL” value (AMBEL; Rate 4.00 g/ha) was 2.5 and the “WEED CONTROL AMBEL” value (AMBEL; Rate 8.00 g/ha) was 2.8. For the same compound, the “WEED CONTROL AMBEL” value (AMBEL; Rate 16.00 g/ha) was 4.0, the “WEED CONTROL AMBEL” value (AMBEL; Rate 32.00 g/ha) was 6.0 and the “WEED CONTROL AMBEL” value (AMBEL; Rate 64.00 g/ha) was 6.5. For the same compound, the “WEED CONTROL AMBEL” value (AMBEL; Rate 96.00 g/ha) was 7.5, the “WEED CONTROL AMBEL” value (AMBEL; Rate 128.00 g/ha) was 8.8 and the “WEED CONTROL SETVI” value (SETVI; Rate 4.00 g/ha) was 3.5. The “WEED CONTROL SETVI” value (SETVI; Rate 8.00 g/ha) was 4.5, the “WEED CONTROL SETVI” value (SETVI; Rate 16.00 g/ha) was 4.3 and the “WEED CONTROL SETVI” value (SETVI; Rate 32.00 g/ha) was 6.0. For the same compound, the “WEED CONTROL SETVI” value (SETVI; Rate 64.00 g/ha) was 7.5, the “WEED CONTROL SETVI” value (SETVI; Rate 96.00 g/ha) was 9.0 and the “WEED CONTROL SETVI” value (SETVI; Rate 128.00 g/ha) was 9.0. The “WEED CONTROL ABUTH” value (ABUTH; Rate 4.00 g/ha) was 2.5, the “WEED CONTROL ABUTH” value (ABUTH; Rate 8.00 g/ha) was 3.0 and the “WEED CONTROL ABUTH” value (ABUTH; Rate 16.00 g/ha) was 4.0. The “WEED CONTROL ABUTH” value (ABUTH; Rate 32.00 g/ha) was 6.3, the “WEED CONTROL ABUTH” value (ABUTH; Rate 64.00 g/ha) was 6.3 and the “WEED CONTROL ABUTH” value (ABUTH; Rate 96.00 g/ha) was 9.0. The “WEED CONTROL ABUTH” value (ABUTH; Rate 128.00 g/ha) was 9.0.
CC(C)[C@@]1(C)N=C(c2ncccc2C(=O)O)NC1=O [R-Imazapyr, R-imazapyr] was tested, and the “WEED CONTROL CHEAL” value (CHEAL; Rate 1.34 g/ha) was 7.3, the “WEED CONTROL CHEAL” value (CHEAL; Rate 2.68 g/ha) was 7.8 and the “WEED CONTROL CHEAL” value (CHEAL; Rate 5.36 g/ha) was 8.3. The “WEED CONTROL CHEAL” value (CHEAL; Rate 10.72 g/ha) was 9.0, the “WEED CONTROL CHEAL” value (CHEAL; Rate 21.44 g/ha) was 9.0 and the “WEED CONTROL CHEAL” value (CHEAL; Rate 32.16 g/ha) was 9.0. The “WEED CONTROL CHEAL” value (CHEAL; Rate 42.88 g/ha) was 9.0, the “WEED CONTROL AMBEL” value (AMBEL; Rate 1.34 g/ha) was 1.5 and the “WEED CONTROL AMBEL” value (AMBEL; Rate 2.68 g/ha) was 4.5. The “WEED CONTROL AMBEL” value (AMBEL; Rate 5.36 g/ha) was 5.0, the “WEED CONTROL AMBEL” value (AMBEL; Rate 10.72 g/ha) was 6.3 and the “WEED CONTROL AMBEL” value (AMBEL; Rate 21.44 g/ha) was 7.5. The “WEED CONTROL AMBEL” value (AMBEL; Rate 32.16 g/ha) was 9.0, the “WEED CONTROL AMBEL” value (AMBEL; Rate 42.88 g/ha) was 8.5 and the “WEED CONTROL SETVI” value (SETVI; Rate 1.34 g/ha) was 6.0. For the same compound, the “WEED CONTROL SETVI” value (SETVI; Rate 2.68 g/ha) was 7.5, the “WEED CONTROL SETVI” value (SETVI; Rate 5.36 g/ha) was 8.0 and the “WEED CONTROL SETVI” value (SETVI; Rate 10.72 g/ha) was 9.0. For the same compound, the “WEED CONTROL SETVI” value (SETVI; Rate 21.44 g/ha) was 9.0, the “WEED CONTROL SETVI” value (SETVI; Rate 32.16 g/ha) was 9.0 and the “WEED CONTROL SETVI” value (SETVI; Rate 42.88 g/ha) was 9.0. The “WEED CONTROL ABUTH” value (ABUTH; Rate 1.34 g/ha) was 4.3, the “WEED CONTROL ABUTH” value (ABUTH; Rate 2.68 g/ha) was 5.8 and the “WEED CONTROL ABUTH” value (ABUTH; Rate 5.36 g/ha) was 7.3. The “WEED CONTROL ABUTH” value (ABUTH; Rate 10.72 g/ha) was 8.0, the “WEED CONTROL ABUTH” value (ABUTH; Rate 21.44 g/ha) was 9.0 and the “WEED CONTROL ABUTH” value (ABUTH; Rate 32.16 g/ha) was 9.0. For the same compound, the “WEED CONTROL ABUTH” value (ABUTH; Rate 42.88 g/ha) was 9.0.
With CCc1cnc(C2=N[C@](C)(C(C)C)C(=O)N2)c(C(=O)O)c1 [R-Imazethapyr, R-imazethapyr] the “WEED CONTROL CHEAL” value (CHEAL; Rate 2.68 g/ha) was 2.3, the “WEED CONTROL CHEAL” value (CHEAL; Rate 5.36 g/ha) was 3.8 and the “WEED CONTROL CHEAL” value (CHEAL; Rate 10.72 g/ha) was 4.0. The “WEED CONTROL CHEAL” value (CHEAL; Rate 21.44 g/ha) was 6.8, the “WEED CONTROL CHEAL” value (CHEAL; Rate 42.88 g/ha) was 7.0 and the “WEED CONTROL CHEAL” value (CHEAL; Rate 64.30 g/ha) was 9.0. The “WEED CONTROL CHEAL” value (CHEAL; Rate 85.76 g/ha) was 9.0, the “WEED CONTROL AMBEL” value (AMBEL; Rate 2.68 g/ha) was 3.8 and the “WEED CONTROL AMBEL” value (AMBEL; Rate 5.36 g/ha) was 3.5. For the same compound, the “WEED CONTROL AMBEL” value (AMBEL; Rate 10.72 g/ha) was 3.0, the “WEED CONTROL AMBEL” value (AMBEL; Rate 21.44 g/ha) was 4.8 and the “WEED CONTROL AMBEL” value (AMBEL; Rate 42.88 g/ha) was 6.5. The “WEED CONTROL AMBEL” value (AMBEL; Rate 64.30 g/ha) was 8.8, the “WEED CONTROL AMBEL” value (AMBEL; Rate 85.76 g/ha) was 9.0 and the “WEED CONTROL SETVI” value (SETVI; Rate 2.68 g/ha) was 4.8. The “WEED CONTROL SETVI” value (SETVI; Rate 5.36 g/ha) was 4.5, the “WEED CONTROL SETVI” value (SETVI; Rate 10.72 g/ha) was 5.5 and the “WEED CONTROL SETVI” value (SETVI; Rate 21.44 g/ha) was 6.5. For the same compound, the “WEED CONTROL SETVI” value (SETVI; Rate 42.88 g/ha) was 7.5, the “WEED CONTROL SETVI” value (SETVI; Rate 64.30 g/ha) was 9.0 and the “WEED CONTROL SETVI” value (SETVI; Rate 85.76 g/ha) was 9.0. The “WEED CONTROL ABUTH” value (ABUTH; Rate 2.68 g/ha) was 4.8, the “WEED CONTROL ABUTH” value (ABUTH; Rate 5.36 g/ha) was 4.8 and the “WEED CONTROL ABUTH” value (ABUTH; Rate 10.72 g/ha) was 4.8. For the same compound, the “WEED CONTROL ABUTH” value (ABUTH; Rate 21.44 g/ha) was 6.8, the “WEED CONTROL ABUTH” value (ABUTH; Rate 42.88 g/ha) was 7.0 and the “WEED CONTROL ABUTH” value (ABUTH; Rate 64.30 g/ha) was 9.0. For the same compound, the “WEED CONTROL ABUTH” value (ABUTH; Rate 85.76 g/ha) was 9.0.
